Measured values from patent publication US12161688B2, “Treatment of inflammatory bowel disease with long acting glatiramer and adipose-derived stem cells” (STEM CELL MEDICINE LTD., priority 2016, dated 2024).

Test system: DSS-induced IBD
Assay: DSS-induced inflammatory bowel disease (acute colitis) in mice
Type: in vivo, C57BL/6 female mice
Method: Glatiramer acetate (GA) and GA Depot administration: […] GA Depot was suspended in sterile water for injection (WFI) (B Braun, Melsumgen, Germany) and injected intramuscularly (IM) at 10 mg dose (doses of GA Depot are given according to amount of active ingredient, i.e. GA Depot 10 mg contains 10 mg GA) divided to two 5 mg doses on days 0 and 1 due to technical reasons (volume limitation). Animals: All animal studies were approved by local ethics committees. C57BL/6 female mice, 7-9 weeks old were randomized into control or treatment groups with similar mean weight Animals were given food and water ad libitum throughout the experiment. Cell culture: SVF was plated at a density of 2×10^6 cells per 75 cm^2. Cells were grown to 80% confluency, trypsinized and sub-cultured up to passage 3-4. Cells were then collected and analyzed by FACS for the markers: […] The cells were stored frozen in liquid nitrogen until use. For use, the cells were thawed and plated at a concentration of 50,000 cells/cm^2 and incubated overnight. Prior to cells intraperitoneal (IP) injection the cells were trypsinized, counted and prepared for injection at a concentration of 1×10^6 cell/100 ul PBS and kept in ice until use for a period no longer than 30 min. Inflammatory bowel disease (IBD) induction: A widely used IBD model in mice is the dextran sulfate sodium (DSS)-induced colitis. DSS administration in the mice drinking water leads to many of the events presumed to initiate and sustain human IBD (Boismenu and Chen (2000) J Leukoc Biol, 67:267-278). […] In brief, body weight, rectal bleeding (observation of bleeding signs on the anus or gross bleeding), stool consistency and survival were monitored daily. […] Fourteen (14) days following disease induction, mice were sacrificed and the large intestine was collected and evaluated for colon length and microscopic colonic damage. […] Statistical analysis: Each data set was analyzed using single-factor analysis of variance (ANOVA) followed by two-tailed, two-sample students' T test assuming unequal variances, n=10/group, +/-standard error.

L-glutamic acid polymer with L-alanine, L-lysine and L-tyrosine, acetate (salt) [Copaxone®]
animals showing bleeding (Hemoccult test) (day 5): 50% | animals showing bleeding (Hemoccult test) (day 10): 20% | effect on IBD manifestations (overall conclusion) (mouse, in vivo): almost no effect
